This series is described as follows: solvent given as SMILES.

The values below come from the Deep4Chem optical property database.

On to `CCn1c2ccccc2c2cc(-c3cc(-c4ccc5c(c4)c4ccccc4n5CC)nc(C#N)n3)ccc21`, for which the absorption maximum reads like this: (in C1CCOC1) 381 nm; (in CCOC(C)=O) 378 nm; (in CN(C)C=O) 387 nm; (in Cc1ccccc1) 380 nm; (in ClCCl) 381 nm.

The molecule `Brc1ccc(N/C=C/C=[NH+]c2ccc(Br)cc2)cc1` had an absorption maximum (in CS(C)=O) of 386 nm.

On to `c1cc2c(C3SCCCS3)c3ccc(=[N+]4CCCCC4)cc-3oc2cc1N1CCCCC1`, for which, under “in CO”, the absorption maximum worked out at 583.65 nm.

Consider `CC[N+](CC)=c1ccc2c(-c3ccccc3C(=O)O)c3c(=O)oc4c5c6c(cc4c3oc-2c1)CCCN6CCC5`, for which the absorption maximum (in CCO) was found to be 612 nm, the absorption maximum (in ClC(Cl)Cl) was determined as 623 nm and the absorption maximum (in O) is listed as 612 nm.

As to `N#Cc1c(-n2c3ccccc3c3ccccc32)nc(-n2c3ccccc3c3ccccc32)c(C#N)c1-c1ccccc1`, under “in c1cc(-c2cccc(-n3c4ccccc4c4ccccc43)c2)cc(-n2c3ccccc3c3ccccc32)c1”, the absorption maximum was 374 nm.

For the molecule `CCCCCOc1cc2oc(=O)c3c4ccc(N(c5ccccc5)c5ccccc5)cc4c4ccc5cccc6c(c1)c2c3c4c56`, the absorption maximum (in C1CCOC1) was determined as 476 nm.

`CN(C)c1cc(-c2ccc(C#Cc3cc[n+](C)cc3)cc2)cc2ccccc12`: the absorption maximum (in ClCCl) amounted to 366 nm.

On to `CCOC(=O)CCCCCn1c2ccccc2c(=O)c2cc3c(cc21)c(=O)c1cc(I)ccc1n3CCCCCC(=O)OCC`, for which the absorption maximum (in CO) amounted to 535 nm.

Consider `CCCCC1=C(CCCC)c2cccc3c2c(cc2nc4ccccc4nc23)O1`, for which the absorption maximum (in ClCCl) is recorded as 503 nm.

As for `CCCCCCCCCCCCn1c(-c2cc(-c3nc4ccc(C)cc4n3CCCCCCCCCCCC)cc(-c3nc4ccc(C)cc4n3CCCCCCCCCCCC)c2)nc2ccc(C)cc21`, the absorption maximum (in ClCCl) came to 306.5 nm.

`CCOC(=O)c1c(-c2cc3ccccc3oc2=O)nn(-c2ccc(Cl)cc2)c1C(=O)OCC`: the absorption maximum (in ClCCl) was 323 nm.

On to `C[Si]1(C)c2ccc(-c3ccc(-c4cccs4)s3)cc2C=Cc2cc(-c3ccc(-c4cccs4)s3)ccc21`, for which, under “in ClCCl”, the absorption maximum is 398 nm.

The molecule `O=C(/C=C(\O)c1ccc(N2c3ccccc3Oc3ccccc32)cc1)c1ccc(N2c3ccccc3Oc3ccccc32)cc1` registered an absorption maximum (in Cc1ccccc1) of 441 nm.

`Cc1cc(C)c(C2=C3C=CC4=[N+]3[B-]3(Oc5ccccc54)Oc4ccccc4-c4ccc2n43)c(C)c1` (stereo unspecified) displayed an absorption maximum (in ClC(Cl)Cl) of 626 nm.

Take `c1ccc(-c2nc(-c3nc(-c4ccccc4)c(-c4ccccc4)o3)oc2-c2ccccc2)cc1`: the absorption maximum (in C1COCCO1) turned out to be 343 nm.

`Cc1ccc(C2=C3C=CC4=[N+]3[P-](=O)(=O)n3c2ccc3-c2ccc([nH]2)/C(c2ccc(C)cc2)=c2/cc/c(o2)=C(\c2ccc(C)cc2)c2ccc4[nH]2)cc1` returned an absorption maximum (in ClC(Cl)Cl) of 708 nm.

Regarding `Cc1cc(N2c3ccccc3C3(c4ccccc4-c4ccccc43)c3ccccc32)c(C)cc1-c1nc(-c2ccccc2)nc(-c2ccccc2)n1`, the absorption maximum (in Cc1ccccc1) came out at 382.89 nm.

`c1ccc(-c2nc(-c3ccccc3)nc(-n3c4ccccc4c4cc(-n5c6ccccc6c6ccccc65)cc(-n5c6ccccc6c6ccccc65)c43)n2)cc1` registered an absorption maximum (in C1CCOC1) of 332.68 nm.

On to `CC[C@H](C)COc1ccc(C2=C3C(C)=C(c4ccc5ccc6cccc7ccc4c5c67)C(C)=[N+]3[B-](F)(F)n3c(C)c(-c4ccc5ccc6cccc7ccc4c5c67)c(C)c32)cc1`, for which the absorption maximum (in ClCCl) was 530 nm.

`CC(=O)OCCN1C(=O)c2cccc3c(Oc4ccc(C#N)cc4)ccc(c23)C1=O` had an absorption maximum (in ClC(Cl)Cl) of 351 nm.

With `CC1(C)c2ccccc2N(c2cc(C#N)c(C#N)cc2N2c3ccccc3C(C)(C)c3ccccc32)c2ccccc21`, the absorption maximum (in c1ccc2c(c1)c1ccccc1n2-c1ccc(-c2ccc(-n3c4ccccc4c4ccccc43)cc2)cc1) was found to be 494 nm.

As for `COc1ccc(C#Cc2c(C#Cc3ccc(OC)cc3)c(C#Cc3ccc(OC)cc3)c(C#Cc3ccc(OC)cc3)c(C#Cc3ccc(OC)cc3)c2C#Cc2ccc(OC)cc2)cc1`, the absorption maximum (in ClCCl) turned out to be 386 nm.

On to `CCOC(=O)C1=CN(c2ccccc2)C=CC1c1ccccc1` (stereo unspecified), for which the absorption maximum is 344 nm (in C1CCOC1) and 348 nm (in CO).

As to `CCCCCCCCCCCCOc1cc2cc(N(C)C)ccc2cc1C#N`, the absorption maximum came out at 361 nm (in C1CCOC1); 368 nm (in CC#N); 336 nm (in CCCCCC); 368 nm (in CCO); 361 nm (in CCOC(C)=O); 369 nm (in CS(C)=O). In addition, the absorption maximum is, setting by setting: (in ClCCl) 368 nm; (in O) 368 nm.

`F[B-]1(F)OC(c2cc3c4c(c2)CCCN4CCC3)=Cc2cccc[n+]21` returned an absorption maximum (in ClC(Cl)Cl) of 450 nm.

The molecule `CCN(CC)c1cc(F)c(C(=O)c2cc(F)c(N(CC)CC)cc2F)cc1F` yielded an absorption maximum (in CCO) of 369 nm.

In the case of `Cc1cc(O)c(C(=O)/C=C/c2ccccc2[N+](=O)[O-])c(=O)o1`, the absorption maximum (in CC#N) was 352 nm and the absorption maximum (in ClCCl) amounted to 365 nm.

On to `N#CC1N=c2cc3c4c(cccc4c2=NC1C#N)C(c1ccccc1)=C(c1ccccc1)O3` (stereo unspecified), for which the absorption maximum (in ClCCl) is on record as 501 nm.

Take `CC1(C)c2ccccc2N(c2ccc3c(c2)S(=O)(=O)c2cc(N4c5ccccc5C(C)(C)c5ccccc54)ccc2C3(C)C)c2ccccc21`: the absorption maximum (in ClCCl) worked out at 282 nm.

Regarding `CN(C)c1ccc(C2=Nc3scc[n+]3[B-](F)(F)O2)cc1`, the absorption maximum runs as follows: (in C1CCOC1) 402 nm; (in CC#N) 402 nm; (in Cc1ccccc1) 405 nm; (in ClCCl) 407 nm.

For the molecule `C/C(=N\Nc1ccc(C#N)cc1)c1ccccn1`, the absorption maximum was determined as 342 nm (in CC#N); 347 nm (in CCCCCC); 364 nm (in CO); 351 nm (in CS(C)=O); 343 nm (in ClC(Cl)Cl).

For the molecule `CCn1c2ccccc2c2c(N(c3ccccc3)c3ccccc3)cccc21`, for the setting “in ClCCl”, the absorption maximum turned out to be 357 nm.

As for `c1ccc(-c2nc(-c3ccc(N4c5ccccc5C(c5ccccc5)(c5ccccc5)c5ccccc54)cc3)cc(-c3ccc(N4c5ccccc5C(c5ccccc5)(c5ccccc5)c5ccccc54)cc3)n2)cc1`, the absorption maximum (in Cc1ccccc1) is 373 nm.

As for `c1ccc2c(P(c3c4ccccc4cc4ccccc34)c3c4ccccc4cc4ccccc34)c3ccccc3cc2c1`, the absorption maximum (in C1CCOC1) is 437 nm.

For `CC(C)(C)C1CCC(=CS/C=C/c2ccc(/C=C/SC=C3CCC(C(C)(C)C)CC3)cc2)CC1` (stereo unspecified), under “in ClCCl”, the absorption maximum came out at 351 nm.

Regarding `c1ccc2c(c1)CC1(C2)c2cc(N3c4ccccc4Sc4ccccc43)ccc2-c2ccc(N3c4ccccc4Sc4ccccc43)cc21`, the absorption maximum (in Cc1ccccc1) came out at 310 nm.

Take `CC(=O)c1c(N[C@H](C(=O)O)C(C)C)c2ccc(N(C)C)cc2oc1=O`: the absorption maximum (in ClCCl) is given as 371 nm.

As to `CCOC(=O)C1=CN(c2ccccc2)C=C(C(=O)OCC)C1c1ccccc1`, the absorption maximum was found to be 362 nm (in C1CCOC1) and 366 nm (in CO).

Turning to `B1C=Cc2ccc3ccccc3c2N1`, the absorption maximum (in C1CCCCC1) was 351 nm.

For `COc1cc2c(cc1OC)C1=C3C(=O)N4C=Cc5cc(OC)c(OC)cc5C4=C3C(=O)N1C=C2`, the absorption maximum came to 593 nm (in CN(C)C=O) and 593 nm (in ClC(Cl)Cl).

As to `Cc1ccc(/C=N/c2cc(C(C)C)c(O)cc2C)cc1`, the absorption maximum (in C1CCCCC1) is 341 nm; the absorption maximum (in C1CCOC1) was determined as 348 nm; the absorption maximum (in C1COCCO1) was determined as 344 nm; the absorption maximum (in CC#N) amounted to 337 nm; the absorption maximum (in CC(C)(C)O) is recorded as 346 nm; the absorption maximum (in CC(C)O) stood at 345 nm. Moreover, the absorption maximum by setting is: (in CCCCCC) 340 nm; (in CCCCO) 345 nm; (in CCO) 344 nm; (in CCOC(C)=O) 344 nm; (in CN(C)C=O) 347 nm; (in CO) 344 nm. For the same molecule, the absorption maximum came to 348 nm (in CS(C)=O); 346 nm (in ClC(Cl)Cl); 341 nm (in ClCCl); 346 nm (in O); 344 nm (in OCCO).

In the case of `FC(F)(F)c1ccc(C2=Cc3ccccc3[Si]2(c2ccccc2)c2ccccc2)cc1`, the absorption maximum (in ClCCl) is 336 nm.

On to `CC1=CC(C)=[N+]2C1=C(c1c(-c3ccccn3)nc3ccccn13)c1c(C)cc(C)n1[B-]2(F)F`, for which, where the note is “in ClCCl”, the absorption maximum was found to be 518 nm.

For the setting “in ClC(Cl)Cl”, `COc1ccc(-c2cc(-c3ccc(N(C)C)cc3)nc(-c3ccccc3)n2)cc1` displayed an absorption maximum of 365 nm.

Consider `Cc1cc(-c2nnc(-c3c(C(C)C)cc(C(C)C)cc3C(C)C)o2)ccc1-n1c2ccccc2c2ccccc21`, for which, for the setting “in Cc1ccccc1”, the absorption maximum is recorded as 339 nm.

For the molecule `C1=Cc2ccc3ccccc3c2NB1c1ccccc1`, for the setting “in C1CCCCC1”, the absorption maximum came out at 360 nm.

With `Cc1ccc(C2=Nc3cccc4[n+]3[B-](F)(O2)OC(c2ccc(C)cc2)=N4)cc1`, the absorption maximum (in ClCCl) is 394 nm.

On to `COc1ccc(N(c2ccc(C=C(c3ccccc3)c3ccccc3)cc2)c2ccc(C=C(c3ccccc3)c3ccccc3)cc2)cc1`, for which the absorption maximum (in Cc1ccccc1) is listed as 397 nm.

`COC(=O)/C=C/c1sc(-c2ccc(N(C)C)s2)c(-c2cn(C)c3ccccc23)c1O` returned an absorption maximum (in CC#N) of 478 nm.

Turning to `CCCC1=Cc2nc1ccc1[nH]c(cc1CCC)c1nc(c(O)cc3[nH]c2cc3CCC)C(CCC)=C1`, the absorption maximum (in Cc1ccccc1) amounted to 677 nm.

Molecule `CC1(C)C(/C=C/C2=C(Oc3ccc(CCN=C=S)cc3Cl)C(=C/C=C3/N(CCCS(=O)(=O)[O-])c4ccccc4C3(C)C)/CCC2)=[N+](CCCS(=O)(=O)[O-])c2ccccc21` registered an absorption maximum (in CO) of 768 nm.

Take `COC(=O)c1cc(=O)n(C)c2cc(-c3ccc(OC)cc3)sc12`: the absorption maximum is reported as 402 nm (in C1CCOC1); 396 nm (in CC#N); 402 nm (in CN(C)C=O); 396 nm (in CO); 404 nm (in CS(C)=O); 402 nm (in Cc1ccccc1).

For `COc1ccc(-c2nc(-c3ccccc3O)c(-c3ccccc3O)n2-c2ccc(C)cc2)cc1`, the absorption maximum came to 305 nm (in C1CCOC1), 308 nm (in CS(C)=O), 304 nm (in ClC(Cl)Cl) and 304 nm (in ClCCl).
